# Laboratory results reported in US10278931B2, “Composition for treatment of inflammatory bowel disease and atopic dermatitis” (INNOPHARMASCREEN INC., priority 2015, dated 2019).
# Key:
# IL-6, IL-22, IL-33 = test: Western blotting of cytokines in DNCB skin tissue lysates; type: in vivo, balb/c mice; conditions: changed slightly
# Experimental: E. Western blotting analysis: Western blotting analysis was performed to verify differences in protein expression in the above antibody array experiment. Proteins from the tissue lysates were separated on SDS-PAGE. The electrophoresed proteins were then transferred onto the PVDF membranes. After washing with PBST solution, the PVDF membranes were blocked with 5% skim milk powder for 1 hour and then reacted with a primary antibody overnight at 4° C. The membranes were washed with PBST solution and reacted with a secondary antibody (anti-IgG) conjugated with horseradish peroxidase (HRP) for 1 hour at room temperature and examined with a photoresist film.
# DSS-induced animal model = test: DSS-induced inflammatory bowel disease (enteritis) model; type: in vivo, C57BL/6 mice
# Experimental: Six-week-old female SPF (Specific pathogen-free) C57BL/6 mice were purchased from DuPont Biotech. The mice were allowed to freely ingest a feed and water after an acclimation period of 1 week in an animal room of Hoseo University Safety Evaluation Center maintained at temperature of 21±3° C., humidity of 50±20%, and light/darkness cycle of 12 h/12 h. All procedures in the present animal experiment were conducted after approved by the Animal Experimental Ethics Committee of Hoseo University (HTRC-15-19, and HTRC-16-22(2)).
# Dextran sodium sulfate (cat no 160110 by Mpbio. corn) as a colitis inducer was diluted to 3% concentration in drinking water and orally administered to mice to induce enteritis. The mice were divided into 6 groups and DW was administered to the animals of a control, and 1.0 mg/kg and 10 mg/kg of the test material were orally administered to the animals of the experimental groups once a day for […]. Sulfasalazine (100 mg/kg) dissolved in crude olive oil was orally administered once a day to the animals of a positive control. In acute cases, disease progression levels were examined after 5 days of administration. In chronic cases, disease progression levels were examined 15 days and 30 days after the 5 days of administration (reference: Toxicology Reports 2 (2015) 10391045-Caryophyllene attenuates dextran sulfate sodium-induced colitis in mice via modulation of gene expression associated mainly with colon inflammation).
# Body weights were measured once for 5 days or more during the test period. The measured weights were quantified as 0 point if there was no difference compared with the normal control, 1 point for weight loss rate of 15%, 2 points for 510%, 3 points for 1015%, and 4 points for >15%. Feces observation was performed to examine the incidence of diarrhea, and the results thereof were quantified as scores (0, normal stool; 1, mildly soft stool; 2, very soft stool; 3, very soft stool (no regular shape); 4, watery stool).
# Rectal tissues and blood were collected from 5 individuals for each of the autopsy times. Yuhan ketamine 50® (Yuhan Corporation, Korean) and Rompun (Bayer, USA) were mixed in a ratio of 3:1, and then used to anesthetize animals via muscular injection. Each anesthetized animal was subjected to laparotomy to collect blood from the abdominal artery, and after blood collection, the abdominal artery was cut and subjected to venesection and death to collect rectal tissue. The length and weight of the collected tissue were measured to calculate weight per 1 cm of the tissue. Some of the collected tissues were used in biopsy, and some thereof were frozen in liquid nitrogen and stored at −70° C. before analysis. […]
smiles,measurement,setting,value
Cl.N=C(N)NC(=N)Nc1ccc(Cl)cc1 [IPS-07001],IL-6 protein expression (western blotting),"IL-6, IL-22, IL-33",decreased
same,IL-22 protein expression (western blotting),"IL-6, IL-22, IL-33",decreased
same,IL-33 protein expression (western blotting),"IL-6, IL-22, IL-33",decreased
same,"enteritis inhibitory activity (ratio of enteric weight to enteric length, wt/cm)","DSS-induced animal model; 10 mg/kg oral, compared to DSS control",superior enteritis inhibitory activity
same,melena,"DSS-induced animal model; compared to the DSS-induced group, oral",significantly decreased
